Source: US8940314B2, “Repellent to insects harmful to a plant and method for repelling the same” (Riken, priority 2004, dated 2015)

Legend:
Type in all cases: in vivo
greenhouse whitefly = test: Repelling effect on greenhouse whitefly, treated common bean seed leaves; details: ingredient 80 parts + auxiliary A 20 parts, 200 mg/100 ml water, 3 days at 22 to 30° C., number of adult insects vs distilled water area
Protocol: Main ingredients (80 parts by mass) and auxiliary A (polyoxyethylene (5) monododecyl ether) (20 parts by mass) listed in Table 1 were mixed to prepare a sample of the repellent of the present invention.
(§1) The repellent was diluted with water to 200 mg/100 ml which was then applied to seed leaves of common bean (variety: Taisho Kintoki). As control samples, auxiliary A alone and distilled water were used. After drying, the plant was maintained at 22 to 30° C. for 3 days in an isolated room in which adult greenhouse whiteflies were grown and the number of adult insects that came flying was counted with time. A repelling ratio was determined according to the following formula. Repelling ratio (%)=100×[1−(the number of adult insects in the repellent applied area)/(the number of adult insects in the distilled water applied area)]

silverleaf whitefly = test: Repelling effect on silverleaf whitefly, treated cucumber seed leaves; details: ingredient 80 parts + auxiliary B 20 parts, 200 mg/100 ml water, 3 days at 22 to 30° C., number of adult insects vs distilled water area
Protocol: (§2) (polyoxyethylene phenyl ether+dodecylbenzenesulufonate): soybean oil (1:1:1) (20 parts by mass) listed in Table 2 were mixed to prepare a sample of the repellent of the present invention. The repellent was diluted with water to 200 mg/100 ml which was then applied to seed leaves of cucumber (variety: Sagami Hanjiro). As control samples, auxiliary B alone and distilled water were used. After drying, the plant was maintained at 22 to 30° C. for 3 days in an isolated room in which adult silverleaf whiteflies were grown and the number of adult insects that came flying was counted with time. A repelling ratio was determined according to the following formula.

cotton aphid = test: Repelling effect on cotton aphid, treated cucumber true leaves; details: ingredient 80 parts + auxiliary A 20 parts, 200 mg/100 ml water, 7 days at 22 to 30° C., number of adult insects vs distilled water area
Protocol: Main ingredients (80 parts by mass) and auxiliary A (polyoxyethylene (5) monododecyl ether) (20 parts by mass) listed in Table 3 were mixed to prepare a sample of the repellent of the present invention.
as §1, with “to true” for “to seed”, “of cucumber” for “of common bean”, “(variety: Sagami Hanjiro at 0.7 leaf stage).” for “(variety: Taisho Kintoki).”, “for 7” for “for 3”, “which cotton aphid” for “which adult greenhouse whiteflies”

green peach aphid = test: Repelling effect on green peach aphid, treated eggplant seed leaves; details: ingredient 80 parts + auxiliary B 20 parts, 200 mg/100 ml water, 7 days at 22 to 30° C., number of adult insects vs distilled water area
Protocol: as §2, with “oil (1:1:1))” for “oil (1:1:1)”, “Table 4” for “Table 2”, “of eggplant” for “of cucumber”, “(variety: Senryo No. 2).” for “(variety: Sagami Hanjiro).”, “for 7” for “for 3”, “which green peach aphid” for “which adult silverleaf whiteflies”

western flower thrips = test: Repelling effect on western flower thrips, insect damage on treated eggplant true leaves; details: ingredient 80 parts + auxiliary A 20 parts, 200 mg/100 ml water, 10 days at 22 to 30° C., total degree of insect damage vs distilled water area
Protocol: Main ingredients (80 parts by mass) and auxiliary A (polyoxyethylene (5) monododecyl ether) (20 parts by mass) listed in Table 5 were mixed to prepare a sample of the repellent of the present invention. The repellent was diluted with water to 200 mg/100 ml which was then applied to true leaves of eggplant (variety: Senryo No. 2 at 3.5 leaf stage). As control samples, auxiliary A alone and distilled water were used. After drying, the plant was maintained at 22 to 30° C. for 10 days in an isolated room in which adult western flower thrips were grown and the degree of insect damage (the number of insect damage spots) was observed and were totaled based on the criteria: 0 for no damage, 1 for very slight damage, 3 for slight damage, 5 for remarkable damage and 10 for serious damage. A repelling ratio was determined according to the following formula.

Thrips palmi Karny = test: Repelling effect on Thrips palmi Karny, insect damage on treated eggplant true leaves; details: ingredient 80 parts + auxiliary B 20 parts, 200 mg/100 ml water, 10 days at 22 to 30° C., total degree of insect damage vs distilled water area
Protocol: The same procedures in Example 5 were repeated to prepare the repellent except that auxiliary B (diglycerin monooleate : (polyoxyethylene phenyl ether+dodecylbenzenesulufonate): soybean oil (1:1:1)) was used in place of auxiliary A.
The repellent was diluted with water to 200 mg/100 ml which was then applied to true leaves of eggplant (variety: Senryo No. 2 at 3.5 leaf stage). As control samples, auxiliary B alone and distilled water were used. After drying, the plant was maintained at 22 to 30° C. for 10 days in an isolated room in which adult Thrips palmi Karny were grown and the degree of insect damage (the number of insect damage spots) was observed and were totaled based on the criteria: 0 for no damage, 1 for very slight damage, 3 for slight damage, 5 for remarkable damage and 10 for serious damage. A repelling ratio was determined according to the following formula. Repelling ratio (%)=100×[1−(the total degree of insect damage in the repellent applied area)/(the total degree of insect damage in the distilled water applied area)]

Compound | Repelling ratio (%) (greenhouse whitefly) | Repelling ratio (%) (silverleaf whitefly) | Repelling ratio (%) (cotton aphid) | Repelling ratio (%) (green peach aphid) | Repelling ratio (%) (western flower thrips) | Repelling ratio (%) (Thrips palmi Karny)
CCCCCCCCCC(=O)O [1-18, n-capric acid] | 90 | 86 | 76 | 68 |  | 
CCCCCCCC/C=C\CCCCCCCC(=O)O [1-19, oleic acid] | 84 | 68 | 70 | 70 | 76 | 69
CC(C)CCCCCCCCCCCCCCC(=O)O [1-20, isostearic acid] | 72 | 65 |  |  |  | 
OC[C@@H](O)[C@H]1OC[C@H](O)[C@H]1O [1-21, sorbitan] | 74 | 67 | 68 | 62 |  | 
CCCCCCCCCCCC(=O)OCC(COC(=O)CCCCCCCCCCC)OC(=O)CCCCCCCCCCC [5-22, glycerin trilaurate] |  |  |  |  | 82 | 90
OC[C@@H](O)[C@@H](O)[C@H](O)[C@@H](O)CO [5-23, sorbitol] |  |  |  |  | 61 | 55
citric acid unsaturated fatty acid monoglyceride [1-7] | 73 | 71 | 92 | 81 |  | 
decaglycerin laurate [1-9] | 80 | 70 | 90 | 83 |  | 
decaglycerin oleate [1-8] | 76 | 75 | 95 | 78 |  | 
decaglycerin stearate [5-7] |  |  |  |  | 77 | 70
diglycerin monostearate [5-5] |  |  |  |  | 60 | 55
glycerin diacetomonolaurate [1-6] | 96 | 94 | 82 | 77 |  | 
glycerin monoacetomonostearate [5-8] |  |  |  |  | 68 | 55
glycerin monocaprylate [1-1] | 82 | 73 | 88 | 76 |  | 
glycerin monolaurate [5-1] |  |  |  |  | 62 | 65
glycerin monooleate [1-2] | 82 | 70 | 85 | 81 |  | 
glycerin monopalmitate [5-3] |  |  |  |  | 68 | 71
glycerin monostearate [5-2] |  |  |  |  | 58 | 62
poly (2-3) glycerin oleate [5-6] |  |  |  |  | 58 | 68
polyoxyethylene (5) monododecyl ether [1-23, reference compound] | 5 |  | 3 |  | 8 | 
polyoxyethylene (20) sorbitan [5-13] |  |  |  |  | 68 | 54
polyoxyethylene (40) sorbitan [1-15] | 70 | 85 | 75 | 82 | 75 | 69
polyoxyethylene (60) sorbitan [1-16] | 73 | 77 | 78 | 80 |  | 
propylene glycol monooleate [1-10] | 82 | 73 | 82 | 76 | 80 | 81
sorbitan laurate [1-4] | 92 | 92 | 96 | 82 | 53 | 63
sorbitan oleate [1-5] | 80 | 75 | 93 | 85 |  | 
sorbitan palmitate [5-11] |  |  |  |  | 72 | 73
succinic acid saturated acid monoglyceride [5-9] |  |  |  |  | 70 | 71
sucrose fatty acid ester (laurate) [5-25] |  |  |  |  | 55 | 68
sucrose fatty acid ester (oleate) [5-24] |  |  |  |  | 58 | 62
